{"source": "patent US9283212B2", "about": "“Pharmaceutical preparation and delivery system” (PALMAYA PTY LTD, priority 2009, dated 2016)", "key": {"[1]": {"test_system": "patients with addiction, chronic anxiety or sleep disorders", "assay": "continuous subcutaneous infusion of flumazenil in patients (case study and observations)", "format": "in vivo, human", "procedure": "A solution of flumazenil in saline solution was prepared by dissolving 16 mg of flumazenil in 30 mL of saline and adjusting the pH to between 6.5 to 7.0 with a phosphate buffer, solution (pH 5.0). The final concentration of flumazenil in saline is 0.53 mg/mL.\nA solution of flumazenil in saline was prepared as set out above. That is, a portion of 12 to 16 mg flumazenil in 30 mL of saline was prepared for the subcutaneous administration via a spring driven 30 mL pump. The pump used was a portable infusion Springfusor pump (O'Neil Balloon Infuser, ID: SBI-100; Go Medical Industries). The delivery rate of the flumazenil was in the order of 40 to 1000 μg/h.\nA Springfusor pump connected to tubing and a butterfly cannula was set up, wherein the pump was loaded with 30 mL of flumazenil solution (0.53 mg/mL). The butterfly cannula was inserted into the patient's abdomen using standard techniques and the pump set to delivery flumazenil at a rate of 166 μg/h. After the initial four day (96 hour) administration, the pump was reloaded with a further 30 mL of flumazenil solution (0.53 mgmL) and delivery continued for a further four days (96 hours). The subcutaneous infusion continued for a total of three weeks."}, "[2]": {"test_system": "patient suffering from chronic anxiety", "assay": "patient controlled subcutaneous pump, single dose, heart rate and anxiety", "format": "in vivo, human", "procedure": "The heart rate and the body movement of the patient were recorded using standard equipment."}, "[3]": {"test_system": "patients with cravings for smoking", "settings": "patient controlled delivery, agent alone", "text": "In one experiment, flumazenil and naltrexone were mixed to capture the benefits of mixing a benzodiazepine antagonist and an opiate antagonist to be given in a pulsative manner when cravings were observed."}, "[4]": {"settings": "cited from earlier work"}, "[5]": {"settings": "cited from earlier work", "remark": "listed apart in the source"}, "[6]": {"test_system": "subjects with panic disorder, social anxiety or alcohol dependence", "settings": "cited from earlier work"}, "[7]": {"test_system": "patients with addiction, chronic anxiety or sleep disorders", "assay": "continuous subcutaneous infusion of flumazenil in patients (case study and observations)", "format": "in vivo, human", "settings": "intravenous infusions below 80 μg/h"}, "[8]": {"settings": "continuous subcutaneous infusion"}}, "note": "“Also recorded” adds a separate entry of the source."}
{"smiles": "CCOC(=O)c1ncn2c1CN(C)C(=O)c1cc(F)ccc1-2", "note": "[flumazenil]", "values": [{"measurement": "panic attacks", "setting": "[1]; after full treatment with subcutaneous infusion, one patient", "value": "gone"}, {"measurement": "anticonvulsant effect", "setting": "[1]; constant subcutaneous delivery of 166 μg/h", "value": "appears to be effective as an anticonvulsant"}, {"measurement": "sleeping pulse rates", "setting": "[1]; continuous infusion with or without opiate and cannabanoid antagonists, chronic anxiety disorders", "value": "reductions in sleeping pulse rates"}, {"measurement": "anxiety levels / anxiety disorders", "setting": "[1]; [8]", "value": "reduced; also recorded: marked improvements"}, {"measurement": "cognitive function", "setting": "[1]; [8]", "value": "improved cognitive functions; also recorded: appeared to improve daily"}, {"measurement": "dependency on anti-psychotic drugs", "setting": "[1]; continuous subcutaneous infusion 166 μg/h, one patient", "value": "decreased"}, {"measurement": "sleep patterns / chronic sleep disorders", "setting": "[1]; continuous subcutaneous infusion, 166 μg/h, greater than four days", "value": "better sleep patterns; also recorded: gradually improved; also recorded: good response rates"}, {"measurement": "cravings for addictive substances (alcohol, smoking, amphetamines, opiates, benzodiazepines)", "setting": "[1]; continuous subcutaneous infusion, during and after infusion", "value": "decreased and eventually were considered negligible; also recorded: reduced; also recorded: reduction in craving for alcohol"}, {"measurement": "pulse rate", "setting": "[2]; 60 minutes after single 1 mg subcutaneous dose, from close to 120 bpm before", "value": 80, "unit": "bpm"}, {"measurement": "anxiety", "setting": "[2]; single 1 mg dose via patient controlled subcutaneous pump", "value": "reduction in anxiety"}, {"measurement": "symptoms of craving and anxiety", "setting": "[3]", "value": "decrease symptoms of craving and anxiety"}, {"measurement": "solubility in acidic aqueous solutions", "setting": "[4]; acidic aqueous solutions", "value": "slightly soluble"}, {"measurement": "solubility in water", "setting": "[4]; water", "value": "insoluble in water"}, {"measurement": "half life", "setting": "[5]; in vivo", "value": "very short half life"}, {"measurement": "oral bioavailability", "setting": "[5]; oral", "value": "low oral bioavailability"}, {"measurement": "panic induction", "setting": "[6]; bolus infusion of 2 mg in 10 minutes, subjects with panic disorder", "value": "can act as a specific panicogen"}, {"measurement": "effect on social anxiety or alcohol-dependent subjects", "setting": "[6]; intravenous infusion", "value": "no effect"}, {"measurement": "anticonvulsant effect", "setting": "[7]", "value": "failed to stop epileptic convulsions"}]}
